# Reference: patent US20250276962A1, “CONTRACEPTIVE COMPOUNDS AND METHODS” (Regents of the University of Minnesota, priority 2021, published 2025)
# “And” between values parts separate entries of the source, which are not always exact repeats. Equal entries are not always repeated. “Also recorded” adds a separate entry of the source. Where two headings read alike, the source gives them in different places.
# What was measured:
# [1] = Single dose toxicity, dog; conditions: Beagle, in vivo, Maximum tolerated dose (MTD), Beagle dogs, highest dose level tested
# human liver fibroblast = type: cell-based
# Text: The results were negative.
# male Beagle dogs = test: Testis histopathology after 14-day dosing, dog; type: in vivo; conditions: daily doses for 14 days (25 mg/kg/day in FIG. 11)
# Procedure: (§1) 2 male Beagle dogs and 5 male SD rats were dosed with 25 mg/kg/day for 14 days. On Day 15, animals were euthanized to harvest organs for histopathology. Shown are representative images. See Example 19.
# male CD-1 mice = test: Mouse studies with epididymal sperm count as readout; conditions: 10 mg/kg/day for 4 weeks
# physchem = conditions: pH 7.4
# 48 potential off-targets = test: Off-target screening, agonist and antagonist activity against 48 potential off-targets; conditions: 10 uM; against 39 of 48 targets (including glucocorticoid and androgen receptors)
# [2] = molecular target: cannabinoid receptor 1 (CB1) (Homo sapiens, UniProt P21554); test: Off-target screening, CB1; type: cell-based
# Chain of cannabinoid receptor 1 (CB1) (P21554 whole entry, species assumed): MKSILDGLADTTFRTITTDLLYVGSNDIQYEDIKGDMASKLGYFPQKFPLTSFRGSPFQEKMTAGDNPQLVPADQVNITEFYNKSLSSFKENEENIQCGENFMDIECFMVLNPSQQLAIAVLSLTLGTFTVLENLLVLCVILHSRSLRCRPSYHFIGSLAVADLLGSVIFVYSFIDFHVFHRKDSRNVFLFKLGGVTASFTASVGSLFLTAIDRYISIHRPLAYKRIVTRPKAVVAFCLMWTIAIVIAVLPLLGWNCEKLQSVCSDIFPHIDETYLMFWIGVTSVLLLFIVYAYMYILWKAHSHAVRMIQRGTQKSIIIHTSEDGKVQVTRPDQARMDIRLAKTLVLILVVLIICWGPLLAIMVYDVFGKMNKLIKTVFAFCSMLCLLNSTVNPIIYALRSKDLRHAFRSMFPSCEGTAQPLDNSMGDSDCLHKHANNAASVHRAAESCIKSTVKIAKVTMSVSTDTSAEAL
# male Sprague-Dawley rats = test: Testis histopathology after 14-day dosing, rat; type: in vivo; conditions: male SD rats, daily doses for 14 days (25 mg/kg/day in FIG. 11)
# Procedure: as §1
# [3] = molecular target: NaV1.5 (cardiac sodium ion channel) (Homo sapiens, UniProt Q14524); test: Off-target screening, NaV1.5; type: cell-based
# NaV1.5 = NaV1.5 (Homo sapiens, UniProt Q14524); test: Off-target screening, NaV1.5; type: cell-based; conditions: 10 μM
# in vivo = conditions: male, Sprague-Dawley, rat, oral
# male cynomolgus macaques [4] = test: Cynomolgus macaque study with sperm counts per ejaculate as readout; type: in vivo
# Procedure: Sperm counts were assessed weekly or bi-weekly in fresh semen samples obtained with electroejaculation. 3 macaques were orally dosed with 2.5 mg/kg, which is the dose equivalent to 10 mg/kg in mouse based on body surface area. […] The animals are now in recovery to assess reversibility (data not shown). […] After dosing for another week at 7.5 mg/kg/day, individual sperm counts were 132, 38 and 12×10^6 showing efficacy in all 3 animals. Since day 38, the animals have been in recovery to assess reversibility. Four weeks after the animals received the last dose, individual sperm counts were 297, 71 and 300×10^6 showing 50% reversibility in animal #1, 65% reversibility in animal #2 and 100% reversibility in animal #3.
# Single dose PK, marmoset = type: in vivo; conditions: male, monkey, plasma, Marmoset 5 mg/kg
# Procedure: (§2) NHP studies: Three young adult male marmosets received a single 5 mg/kg dose of the compound of Example land the compound of 3 sexually mature male cynomolgus macaques received a single dose of 0.5, 1, 5 and 10 mg/kg.
# [5] = Stability in dog hepatocytes; type: in vitro ADME; conditions: read-out: Half-life (T1/2) Hepatocytes (Phase I and Phase II metabolism)
# [6] = molecular target: monoamine oxidase A (MAO-A) (Homo sapiens, UniProt P21397); test: Off-target screening, MAO-A; type: biochemical
# Chain of monoamine oxidase A (MAO-A) (P21397 whole entry, species assumed): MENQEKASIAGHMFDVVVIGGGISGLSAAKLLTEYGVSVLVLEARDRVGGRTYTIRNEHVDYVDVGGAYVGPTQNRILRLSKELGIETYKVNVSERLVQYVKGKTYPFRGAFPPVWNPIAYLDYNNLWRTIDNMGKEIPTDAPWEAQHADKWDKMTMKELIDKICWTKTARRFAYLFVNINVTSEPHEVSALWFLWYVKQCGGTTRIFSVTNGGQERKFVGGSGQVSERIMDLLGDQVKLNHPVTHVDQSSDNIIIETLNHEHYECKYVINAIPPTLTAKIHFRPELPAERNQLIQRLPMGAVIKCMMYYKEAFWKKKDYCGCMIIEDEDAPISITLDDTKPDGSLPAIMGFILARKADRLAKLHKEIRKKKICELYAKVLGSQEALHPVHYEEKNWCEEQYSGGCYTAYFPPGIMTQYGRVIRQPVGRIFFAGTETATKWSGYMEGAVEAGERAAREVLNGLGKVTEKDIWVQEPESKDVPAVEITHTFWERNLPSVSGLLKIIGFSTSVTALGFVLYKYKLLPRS
# [7] = Repeat dose PK (14 days), dog; type: in vivo; conditions: male, Beagle, plasma, oral, Day 14
# Procedure: […]. In this study, AUC0-inf was measured.
# [8] = Distribution assay, plasma levels after oral dosing; conditions: CD-1 mice, 10 mg/kg oral
# Procedure: Testes and brain were then harvested. Resulting plasma and tissue were frozen at <−20° C. until analysis by LC/MS/MS.
# cyclooxygenase 1 (COX1) = cyclooxygenase 1 (COX1) (Homo sapiens, UniProt P23219); test: Off-target screening, COX1; type: biochemical
# Chain of cyclooxygenase 1 (COX1) (P23219 24-599, species assumed): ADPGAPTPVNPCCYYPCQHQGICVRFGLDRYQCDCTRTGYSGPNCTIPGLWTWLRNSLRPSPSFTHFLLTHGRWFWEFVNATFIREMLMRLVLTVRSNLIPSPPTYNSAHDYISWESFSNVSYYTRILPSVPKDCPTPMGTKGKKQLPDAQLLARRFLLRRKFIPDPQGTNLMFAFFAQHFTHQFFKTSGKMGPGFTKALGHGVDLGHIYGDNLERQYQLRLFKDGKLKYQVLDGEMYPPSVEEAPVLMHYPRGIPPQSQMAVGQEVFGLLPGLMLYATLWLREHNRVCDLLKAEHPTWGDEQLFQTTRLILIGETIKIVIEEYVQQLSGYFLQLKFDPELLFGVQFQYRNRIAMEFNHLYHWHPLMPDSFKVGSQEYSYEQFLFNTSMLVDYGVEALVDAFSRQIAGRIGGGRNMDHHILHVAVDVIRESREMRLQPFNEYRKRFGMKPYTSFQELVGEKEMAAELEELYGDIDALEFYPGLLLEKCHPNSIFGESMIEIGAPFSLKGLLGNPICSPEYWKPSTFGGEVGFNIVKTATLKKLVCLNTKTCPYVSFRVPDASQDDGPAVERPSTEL
# [9] = molecular target: cannabinoid receptor 2 (CB2) (Homo sapiens, UniProt P34972); test: Off-target screening, CB2; type: cell-based
# Chain of cannabinoid receptor 2 (CB2) (P34972 whole entry, species assumed): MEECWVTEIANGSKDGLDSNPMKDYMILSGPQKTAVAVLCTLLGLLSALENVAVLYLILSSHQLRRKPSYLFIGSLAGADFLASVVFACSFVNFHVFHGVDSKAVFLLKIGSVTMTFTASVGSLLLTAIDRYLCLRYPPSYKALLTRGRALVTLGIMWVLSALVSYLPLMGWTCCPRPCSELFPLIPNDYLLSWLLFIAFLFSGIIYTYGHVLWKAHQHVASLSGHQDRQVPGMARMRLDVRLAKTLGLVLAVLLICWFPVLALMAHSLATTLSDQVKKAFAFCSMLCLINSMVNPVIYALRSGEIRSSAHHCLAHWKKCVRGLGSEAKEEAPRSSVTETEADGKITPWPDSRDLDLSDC
# in vitro = conditions: human
# male cynomolgus macaques [10] = conditions: cynomolgus monkey, in vivo
# [11] = molecular target: acetylcholinesterase (AChE) (Homo sapiens, UniProt P22303); test: Off-target screening, AChE; type: biochemical
# Chain of acetylcholinesterase (AChE) (P22303 32-614, species assumed): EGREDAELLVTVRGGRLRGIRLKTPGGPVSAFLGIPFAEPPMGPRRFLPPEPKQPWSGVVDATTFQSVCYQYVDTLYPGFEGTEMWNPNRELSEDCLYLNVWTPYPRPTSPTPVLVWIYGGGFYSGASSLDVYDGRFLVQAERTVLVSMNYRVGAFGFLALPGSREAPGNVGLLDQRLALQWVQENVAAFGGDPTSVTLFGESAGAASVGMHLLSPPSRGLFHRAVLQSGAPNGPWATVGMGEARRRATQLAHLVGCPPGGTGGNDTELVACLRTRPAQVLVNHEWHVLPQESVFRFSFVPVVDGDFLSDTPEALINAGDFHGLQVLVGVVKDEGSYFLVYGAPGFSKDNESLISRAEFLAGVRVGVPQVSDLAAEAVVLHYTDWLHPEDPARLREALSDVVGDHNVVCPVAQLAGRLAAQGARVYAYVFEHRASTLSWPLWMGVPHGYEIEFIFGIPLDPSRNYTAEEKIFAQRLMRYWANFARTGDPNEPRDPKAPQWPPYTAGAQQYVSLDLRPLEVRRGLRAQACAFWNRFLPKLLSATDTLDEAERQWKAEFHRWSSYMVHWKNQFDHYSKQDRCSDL
# [12] = Single dose toxicity, mouse; conditions: male, CD-1, mouse, in vivo, Maximum tolerated dose (MTD), male CD-1 mice, highest dose level tested
# [13] = molecular target: Kir2.1 (potassium channel of excitable cells) (Homo sapiens, UniProt P63252); test: Off-target screening, Kir2.1; type: cell-based
# Chain of Kir2.1 (potassium channel of excitable cells) (P63252 whole entry): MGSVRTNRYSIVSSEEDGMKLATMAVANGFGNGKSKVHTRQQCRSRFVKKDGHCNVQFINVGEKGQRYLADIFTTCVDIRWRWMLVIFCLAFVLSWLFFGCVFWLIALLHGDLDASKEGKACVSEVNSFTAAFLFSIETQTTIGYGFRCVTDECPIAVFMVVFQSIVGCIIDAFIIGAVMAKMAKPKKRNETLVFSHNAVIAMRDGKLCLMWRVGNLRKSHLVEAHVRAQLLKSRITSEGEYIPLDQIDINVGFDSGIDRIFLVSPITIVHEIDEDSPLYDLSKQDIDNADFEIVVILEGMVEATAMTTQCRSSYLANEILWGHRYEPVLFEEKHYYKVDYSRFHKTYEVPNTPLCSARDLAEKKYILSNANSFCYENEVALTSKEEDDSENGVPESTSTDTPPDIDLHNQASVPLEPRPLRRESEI
# cyclooxygenase 2 (COX2) = cyclooxygenase 2 (COX2) (Homo sapiens, UniProt P35354); test: Off-target screening, COX2; type: biochemical
# Chain of cyclooxygenase 2 (COX2) (P35354 18-604, species assumed): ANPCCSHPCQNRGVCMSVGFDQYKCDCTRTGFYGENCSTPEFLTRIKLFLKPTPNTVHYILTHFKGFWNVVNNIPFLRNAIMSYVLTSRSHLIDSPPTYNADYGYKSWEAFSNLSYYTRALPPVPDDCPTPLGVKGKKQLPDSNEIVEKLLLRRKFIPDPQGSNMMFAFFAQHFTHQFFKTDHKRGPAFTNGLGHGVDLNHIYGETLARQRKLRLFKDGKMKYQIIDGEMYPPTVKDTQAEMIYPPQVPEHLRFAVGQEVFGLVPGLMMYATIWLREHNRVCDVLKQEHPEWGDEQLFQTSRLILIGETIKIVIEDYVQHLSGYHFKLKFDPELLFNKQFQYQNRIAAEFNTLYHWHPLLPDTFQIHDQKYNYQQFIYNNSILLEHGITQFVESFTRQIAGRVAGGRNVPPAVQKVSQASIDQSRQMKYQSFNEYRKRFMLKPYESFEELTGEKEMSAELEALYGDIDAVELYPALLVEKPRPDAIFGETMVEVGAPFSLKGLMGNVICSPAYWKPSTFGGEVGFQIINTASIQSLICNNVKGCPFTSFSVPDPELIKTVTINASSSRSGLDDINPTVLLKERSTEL
# [14] = Single dose PK, cynomolgus macaque; type: in vivo
# Procedure: as §2
# [15] = molecular target: KVLQT(7.1)/mink (cardiac potassium ion channel) (Homo sapiens, UniProt P51787); test: Off-target screening, KVLQT(7.1)/mink; type: cell-based
# Chain of KVLQT(7.1)/mink (cardiac potassium ion channel) (P51787 whole entry): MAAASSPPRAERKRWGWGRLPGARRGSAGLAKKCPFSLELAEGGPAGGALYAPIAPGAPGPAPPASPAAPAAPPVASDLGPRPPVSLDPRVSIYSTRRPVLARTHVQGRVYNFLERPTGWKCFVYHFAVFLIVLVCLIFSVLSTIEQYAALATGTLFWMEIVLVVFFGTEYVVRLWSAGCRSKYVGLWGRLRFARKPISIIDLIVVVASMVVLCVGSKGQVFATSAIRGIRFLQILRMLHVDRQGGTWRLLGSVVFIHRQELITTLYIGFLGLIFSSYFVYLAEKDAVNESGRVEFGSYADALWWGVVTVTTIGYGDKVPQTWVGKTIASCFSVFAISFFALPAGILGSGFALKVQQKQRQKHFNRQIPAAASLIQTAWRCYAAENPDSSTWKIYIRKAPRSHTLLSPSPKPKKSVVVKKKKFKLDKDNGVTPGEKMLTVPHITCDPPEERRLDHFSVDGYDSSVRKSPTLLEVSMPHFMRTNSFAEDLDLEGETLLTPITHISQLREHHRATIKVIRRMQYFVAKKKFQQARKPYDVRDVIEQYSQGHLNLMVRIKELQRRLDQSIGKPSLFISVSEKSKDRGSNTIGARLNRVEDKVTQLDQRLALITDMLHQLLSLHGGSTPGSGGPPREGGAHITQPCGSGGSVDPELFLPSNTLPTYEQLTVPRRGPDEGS
# [16] = Stability in dog liver microsomes; type: in vitro ADME; conditions: read-out: Half-life (T1/2) Liver microsomes (Phase I metabolism)
structure (smiles),measurement,setting,value
"Cc1ccc(C2=CC(C)(C)Oc3ccc(-c4ccc(-c5ccc(C(=O)[O-])cc5)[nH]4)cc32)cc1.[Na+] [Example 1, Sodium 4-(5-(2,2-dimethyl-4-(p-tolyl)-2H-chromen-6-yl)-1H-pyrrol-2-yl)benzoate]",MTD,[1],> 500 mg/kg
same,Human liver (lung) fibroblast assay result,human liver fibroblast,negative
same,Human liver (lung) fibroblast assay result,human liver fibroblast; human,The compound of Example 1 showed no cytopathic effects in HepG2 and human
same,Testis histopathology,male Beagle dogs,degeneration of the germinal epithelium; also recorded: visible in all evaluated tubuli seminiferi contorti; also recorded: impairs the germinal epithelium
same,Effect on sperm counts and recovery,"male CD-1 mice; 2 weeks recovery, 10 mg/kg/day",Sperm counts started to increase; also recorded: reversibly reduces sperm counts
same,Epididymal sperm counts,male CD-1 mice; 24 h after last dose,0.51±0.27 ×10^7
same,Reduction of epididymal sperm counts,male CD-1 mice; 24 h after last dose,90%
same,logD,physchem,3.5
same,Agonist or antagonist activity against off-targets,48 potential off-targets,Example 1 had agonist or antagonist activity of <10% against 39 of them (including
same,IC50,[2],1.8 µM
same,inhibition at 10 µM,[2]; 10 μM,90.5%
same,Testis histopathology,male Sprague-Dawley rats,degeneration of the germinal epithelium; also recorded: impairs the germinal epithelium
same,IC50,[3],8.8 µM
same,inhibition at 10 µM,NaV1.5,37.4%
same,MTD at 2 weeks,in vivo,50 mg/kg
same,Individual sperm counts per ejaculate,"male cynomolgus macaques [4]; second cohort (initial 598, 203 and 277), 5 mg/kg/day, after 14 days, 5 mg/kg/day",377 ×10^6 and 62 ×10^6 and 134 ×10^6
same,Individual sperm counts per ejaculate,"male cynomolgus macaques [4]; second cohort, 5 mg/kg/day, after 30 days, 5 mg/kg/day",262 ×10^6 and 28 ×10^6 and 70 ×10^6
same,Individual sperm counts per ejaculate,"male cynomolgus macaques [4]; second cohort, four weeks after the last dose",297 ×10^6 and 71 ×10^6 and 300 ×10^6
same,Reversibility of sperm count reduction,"male cynomolgus macaques [4]; second cohort, four weeks after the last dose, animal #1, #2, #3",50% and 65% and 100%
same,AUC(0-inf),"Single dose PK, marmoset",6.92 µg·h/mL
same,half-life,[5],> 10 h
same,IC50,[6],24.6 µM
same,inhibition at 10 µM,[6]; 10 μM,45.8%
same,AUC(0-inf),[7]; Dog 25 mg/kg/day,752 µg·h/mL
same,AUC(0-inf),[7]; Dog 100 mg/kg/day,14100 µg·h/mL
same,Plasma level at 48 hours,[8],12.9 nM
same,IC50,cyclooxygenase 1 (COX1),1.41 µM
same,inhibition at 10 µM,cyclooxygenase 1 (COX1); read-out: Inhibition of COX1,78.9%
same,IC50,[9],23.3 µM
same,inhibition at 10 µM,[9]; 10 μM,34.3%
same,CLint scaled,in vitro; microsomes,3.05 mL/min/kg
same,half-life,in vitro; pooled liver microsomes,9.5 h
same,"Repeat dose observations (behaviour, body weight, CBC, clinical chemistry)",male cynomolgus macaques [10],"behaved normally and had no substantial changes in body weight, CBC parameters or clinical chemistry parameters"
same,IC50,[11],> 30 µM
same,inhibition at 10 µM,[11]; 10 μM,10.2%
same,MTD,[12],> 1000 mg/kg
same,IC50,[13],> 10 µM
same,inhibition at 10 µM,[13]; read-out: Inhibition of Kir2.1,13.2%
same,IC50,cyclooxygenase 2 (COX2),8.51 µM
same,inhibition at 10 µM,cyclooxygenase 2 (COX2); read-out: Inhibition of COX2,61.8%
same,HepG2 cytotoxicity assay result,HepG2,negative
same,HepG2 cytotoxicity assay result,HepG2; human,The compound of Example 1 showed no cytopathic effects in HepG2 and human
same,AUC(0-inf),[14]; Cyno 1 mg/kg,"33,394 h * ng * mL^−1"
same,AUC(0-inf),[14]; Cyno 5 mg/kg,"175,202 h * ng * mL^−1"
same,AUC(0-inf),[14]; Cyno 10 mg/kg,"293,423 h * ng * mL^−1"
same,AUC(0-inf),"[14]; male, cynomolgus monkey, plasma, Cyno 0.5 mg/kg, read-out: AUC0-inf",23.4 µg·h/mL
same,inhibition at 10 µM,[15],14.9%
same,half-life,[16],> 23.1 h
